Data from patent publication US11090292B2, “Compositions and methods of use of an inappetance-controlling compound” (Aratana Therapeutics, Inc., priority 2012, dated 2021).

How the values were obtained:
IGF-1 [1] = experiment: Example 9: serum IGF-1 concentration; format: in vivo, cats
Procedure: (§1) A four-day study was performed to further assess the pharmacokinetics of formulation 8 from Example 3 (i.e., the most “well-accepted” formulation) in cats. Moreover, the administration of formulation 8 was also analyzed to determine if administration of this formulation could induce sustained production of IGF-1 and relatively depressed, mitigated, or lower levels of cortisol. The different capromorelin-dosing regimens were also assessed for the impact on food intake and changes in body mass.
(§2) Twenty-four adult cats were divided into one of four treatment groups, with all four groups as active treatment groups. Each of the active treatment groups included 6 cats. The first group received a sterile injection of a capromorelin composition containing a 0.75 mg/kg concentration of capromorelin once per day during the four-day experiment. The second group received a once-daily sterile injection of a capromorelin composition at a concentration of 2 mg/kg. The third group received a once-daily dose of a capromorelin composition at a concentration of 2 mg/kg, via oral gavage. The fourth group received a once-daily dose of a capromorelin composition containing capromorelin at a concentration of 4 mg/kg, via oral gavage.
During the seven day study period, on an at least once-daily basis, each of the cats was monitored for clinical observations, mortality, moribundity, body mass, acceptability/palatability, and food consumption. Serum samples were taken to measure capromorelin concentration, IGF-1 concentration, and cortisol concentration. Serum samples were taken on days 1 and 4 immediately prior to dosing (0 minutes) and 30, 60, 90, 120, 240, 360, and/or 480 minutes post dosing. Additional serum samples were taken at 8 AM on Day 7 of the study to assess long-term impact of the active treatments.

[2] = Example 13 cat compromised kidney study: body weight and diet consumption; format: in vivo, cats with compromised kidney function; settings: subcutaneous 2 mg/kg daily for 14 days
Procedure: The following study was undertaken to assess multiple points. First, the following experiments were conducted to determine if a formulation of capromorelin, when administered either intravenously or subcutaneously, can stimulate appetite in cats with compromised kidney function. Second, the following experiments were conducted to assess the pharmacokinetic profile of capromorelin in the serum of cats with compromised kidney function. Finally, the following experiments were conducted to determine if capromorelin accumulates in the serum after 14 days of treatment that is subcutaneously administered.
Sixteen cats with compromised kidney function were acclimatized for the following study. Animals assigned to Group 1 (n=6) received an intravenous administration of a capromorelin formulation (i.e., capromorelin in sterile water) at a dose of 0.75 mg/kg on Day 0 of the experiment. Animals assigned to Group 2 (n=6) received a subcutaneous administration of a capromorelin formulation (2.1% w/v capromorelin, 1% w/v benzyl alcohol, and citrate buffer) daily for 14 days at a dose of 2 mg/kg. Animals assigned to Group 3 (n=4) served as untreated controls. […] Diet consumption was also monitored on study days −7 until day 13 for the animals in Groups 2 and 3 only.

cortisol = experiment: Example 9: serum cortisol concentration; format: in vivo, cats; settings: day 4
Procedure: as §1
as §2, with “The fourth group received a once-daily dose of a capromorelin composition containing capromorelin at a concentration of 4 mg/kg, via oral gavage.” left out
During the seven day study period, on an at least once-daily basis, each of the cats was monitored for clinical observations, mortality, moribundity, body mass, acceptability/palatability, and food consumption. […]

IGF-1 [3] = experiment: Example 5: serum IGF-1; format: in vivo, Beagle dogs; settings: by Day 4, remained elevated on Day 7, Groups 2-4
Procedure: In order to further refine the dosing regimen that would provide an appropriate blood profile of capromorelin and desired results from the perspective of increased food intake and weight gain, an additional series of experiments were conducted. In these experiments, twenty-four adult (male and female) Beagle dogs weighing approximately 9 to 13 kilograms were randomly divided into four groups. Group 1 received a placebo formulation, without any active compound, two times per day; Group 2 received a composition comprising 3 mg/kg of body weight of capromorelin one time per day; Group 3 received a composition comprising 4.5 mg/kg of body weight of capromorelin one time per day; and Group 4 received a composition comprising 3 mg/kg of body weight of capromorelin two times per day. […]
In these experiments, the animals were orally administered the flavored formulation at approximately 8:00 AM and, for Group 4 only, again at 6:00 PM. […] Food consumption was calculated and recorded on Days −7 through Day 7. Baseline food consumption was calculated for each individual dog as the average number of grams of food consumed on Days −3, −2, and −1. The study period food consumption was calculated for each individual dog as the average of Days 1 through 7. […]

## CN1N=C2CCN(C(=O)[C@@H](COCc3ccccc3)NC(=O)C(C)(C)N)C[C@@]2(Cc2ccccc2)C1=O.O=C(O)C(O)C(O)C(=O)O [capromorelin]
IGF-1 [1]; 0.75 mg/kg sterile injectable, day 1
  increase in serum IGF-1 concentration at eight hours post administration relative to time 0: approximately 39.8%
IGF-1 [1]; 0.75 mg/kg sterile injectable, day 4
  increase in serum IGF-1 concentration at eight hours post administration relative to time 0: approximately 12.2%
IGF-1 [1]; 2 mg/kg oral, day 1
  increase in serum IGF-1 concentration at eight hours post administration relative to time 0: approximately 26.6%
IGF-1 [1]; 2 mg/kg oral, day 4
  increase in serum IGF-1 concentration at eight hours post administration relative to time 0: approximately 7.6%
IGF-1 [1]; 2 mg/kg sterile injectable, day 1
  increase in serum IGF-1 concentration at eight hours post administration relative to time 0: ~43.1%
IGF-1 [1]; 2 mg/kg sterile injectable, day 4
  increase in serum IGF-1 concentration at eight hours post administration relative to time 0: ~10.8%
IGF-1 [1]; 4 mg/kg oral, day 1
  increase in serum IGF-1 concentration at eight hours post administration relative to time 0: ~30.8%
IGF-1 [1]; 4 mg/kg oral, day 4
  increase in serum IGF-1 concentration at eight hours post administration relative to time 0: ~0.7%
[2]
  amount of food consumed, Group 2 versus untreated Group 3: no significant difference
  body weights of Group 2 versus untreated Group 3: no significant differences
cortisol
  increases in cortisol serum levels relative to day 1: mitigated on day 4
IGF-1 [3]
  IGF-1 levels in treated animals: sustained increase
